Source: ChEMBL document CHEMBL1909046, “DrugMatrix in vitro pharmacology data”

Key:
[1] = target: T1, C-X-C chemokine receptor type 2 (Homo sapiens, UniProt P25025); format: cell membranes, Membrane; conditions: cho-k1; further: in other assays of this panel Not Active means under 50% inhibition at 10 µM
T1 sequence (P25025 whole entry): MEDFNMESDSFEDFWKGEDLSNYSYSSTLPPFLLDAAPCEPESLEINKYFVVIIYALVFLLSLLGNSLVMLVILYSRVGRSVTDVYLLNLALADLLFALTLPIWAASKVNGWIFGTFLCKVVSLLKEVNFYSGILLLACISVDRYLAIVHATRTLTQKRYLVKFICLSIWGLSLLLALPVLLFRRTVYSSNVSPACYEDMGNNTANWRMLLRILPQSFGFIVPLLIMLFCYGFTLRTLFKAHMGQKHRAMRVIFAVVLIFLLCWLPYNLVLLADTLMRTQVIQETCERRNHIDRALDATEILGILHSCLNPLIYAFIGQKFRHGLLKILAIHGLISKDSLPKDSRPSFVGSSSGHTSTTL

[2] = DRUGMATRIX: Calcium Channel Type L, Dihydropyridine radioligand binding (ligand: [3H] Nitrendipine); format: cell membranes, Rattus norvegicus, Wistar, Cerebral cortex, Membrane; conditions: Not Active = under 50% inhibition at 10 µM
[3] = target: T2, Glucocorticoid receptor (Homo sapiens, UniProt P04150); conditions: hela s3; further: in other assays of this panel Not Active means under 50% inhibition at 10 µM
T2 sequence (P04150 whole entry): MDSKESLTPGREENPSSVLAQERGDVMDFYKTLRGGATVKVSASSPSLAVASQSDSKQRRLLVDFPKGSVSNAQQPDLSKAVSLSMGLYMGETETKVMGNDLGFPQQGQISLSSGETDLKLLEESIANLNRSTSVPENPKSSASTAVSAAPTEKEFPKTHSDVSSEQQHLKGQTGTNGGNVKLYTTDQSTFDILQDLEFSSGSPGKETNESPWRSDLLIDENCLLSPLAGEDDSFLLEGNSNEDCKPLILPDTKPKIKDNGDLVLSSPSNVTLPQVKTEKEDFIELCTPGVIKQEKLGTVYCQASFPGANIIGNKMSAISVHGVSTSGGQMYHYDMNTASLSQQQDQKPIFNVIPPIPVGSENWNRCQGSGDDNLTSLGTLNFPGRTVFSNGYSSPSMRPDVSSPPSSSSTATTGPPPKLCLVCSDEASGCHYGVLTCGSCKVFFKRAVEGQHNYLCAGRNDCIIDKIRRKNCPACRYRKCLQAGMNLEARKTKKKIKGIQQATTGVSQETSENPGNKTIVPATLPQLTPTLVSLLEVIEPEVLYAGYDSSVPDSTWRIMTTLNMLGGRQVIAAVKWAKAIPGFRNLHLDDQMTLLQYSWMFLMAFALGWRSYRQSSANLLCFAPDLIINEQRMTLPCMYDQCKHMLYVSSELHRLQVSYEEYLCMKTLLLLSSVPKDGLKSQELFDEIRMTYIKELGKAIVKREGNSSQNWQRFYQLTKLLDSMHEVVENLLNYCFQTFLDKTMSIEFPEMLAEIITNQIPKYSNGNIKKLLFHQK

[4] = DRUGMATRIX: Leukotriene, BLT (LTB4) radioligand binding (ligand: [3H]LTB4); format: cell membranes, Membrane; conditions: u-937; Not Active = under 50% inhibition at 10 µM
[5] = DRUGMATRIX: Phosphodiesterase PDE3 enzyme inhibition (substrate: [3H]cAMP + cAMP); format: tissue-based, Homo sapiens; conditions: platelet; Not Active = under 50% inhibition at 10 µM
[6] = DRUGMATRIX: ATPase, Na+/K+ enzyme inhibition (substrate: ATP); format: tissue-based, Sus scrofa, Heart; conditions: Not Active = under 50% inhibition at 10 µM
[7] = target: Substance-P receptor (Homo sapiens, UniProt P25103); format: cell membranes, CHO, Membrane; conditions: cho; further: in other assays of this panel Not Active means under 50% inhibition at 10 µM
[8] = target: Adenosine receptor A2a (Homo sapiens, UniProt P29274); test: DRUGMATRIX: Adenosine A2A radioligand binding (ligand: […]); format: cell membranes, HEK293, Membrane; conditions: hek293; Not Active = under 50% inhibition at 10 µM
[9] = DRUGMATRIX: Interleukin IL-1 radioligand binding (ligand: [125I] interleukin 1beta); format: cell membranes, Membrane; conditions: nih3t3; Not Active = under 50% inhibition at 10 µM
[10] = target: T3, Amine oxidase [flavin-containing] A (Homo sapiens, UniProt P21397); test: DRUGMATRIX: Monoamine Oxidase MAO-A enzyme inhibition (substrate: Kynuramine); parameters: species or system BTI-TN-5B1-4; conditions: bti-tn-5b1-4; Not Active = under 50% inhibition at 10 µM
T3 sequence (P21397 whole entry): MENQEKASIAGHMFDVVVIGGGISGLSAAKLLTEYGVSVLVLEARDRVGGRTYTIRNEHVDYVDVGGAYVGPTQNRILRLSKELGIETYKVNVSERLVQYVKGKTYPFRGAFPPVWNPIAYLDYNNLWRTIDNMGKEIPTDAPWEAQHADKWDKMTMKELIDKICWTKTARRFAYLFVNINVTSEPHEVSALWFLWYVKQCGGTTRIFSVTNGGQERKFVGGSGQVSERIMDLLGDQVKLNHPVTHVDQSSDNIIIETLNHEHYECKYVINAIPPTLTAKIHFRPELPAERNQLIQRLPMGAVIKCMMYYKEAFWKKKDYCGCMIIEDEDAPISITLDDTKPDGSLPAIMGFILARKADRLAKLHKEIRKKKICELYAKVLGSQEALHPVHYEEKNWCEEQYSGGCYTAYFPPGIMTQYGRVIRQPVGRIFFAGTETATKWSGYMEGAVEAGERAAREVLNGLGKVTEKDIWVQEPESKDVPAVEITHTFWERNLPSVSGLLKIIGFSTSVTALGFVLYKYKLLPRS

[11] = DRUGMATRIX: Phosphodiesterase PDE4 enzyme inhibition (substrate: [3H]cAMP + cAMP); conditions: u-937; Not Active = under 50% inhibition at 10 µM
[12] = target: Delta-type opioid receptor (Homo sapiens, UniProt P41143); format: cell membranes, HEK293, Membrane; conditions: hek293; further: in other assays of this panel Not Active means under 50% inhibition at 10 µM
[13] = target: Kappa-type opioid receptor (Homo sapiens, UniProt P41145); test: DRUGMATRIX: Opiate kappa (OP2, KOP) radioligand binding (ligand: [3H] Diprenorphine); format: cell membranes, HEK293, Membrane; conditions: hek293; Not Active = under 50% inhibition at 10 µM
Sequence of Kappa-type opioid receptor (P41145 whole entry): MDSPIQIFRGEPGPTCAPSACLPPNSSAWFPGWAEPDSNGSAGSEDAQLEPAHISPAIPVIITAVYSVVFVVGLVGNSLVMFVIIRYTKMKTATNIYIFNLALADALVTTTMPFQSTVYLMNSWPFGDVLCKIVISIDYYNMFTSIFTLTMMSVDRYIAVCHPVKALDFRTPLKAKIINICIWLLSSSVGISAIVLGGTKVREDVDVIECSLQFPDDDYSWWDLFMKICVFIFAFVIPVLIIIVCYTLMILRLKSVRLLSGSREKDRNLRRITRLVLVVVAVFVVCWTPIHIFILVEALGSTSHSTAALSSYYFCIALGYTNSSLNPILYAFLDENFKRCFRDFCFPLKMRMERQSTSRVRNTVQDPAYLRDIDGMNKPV

Sequence of Delta-type opioid receptor (P41143 whole entry): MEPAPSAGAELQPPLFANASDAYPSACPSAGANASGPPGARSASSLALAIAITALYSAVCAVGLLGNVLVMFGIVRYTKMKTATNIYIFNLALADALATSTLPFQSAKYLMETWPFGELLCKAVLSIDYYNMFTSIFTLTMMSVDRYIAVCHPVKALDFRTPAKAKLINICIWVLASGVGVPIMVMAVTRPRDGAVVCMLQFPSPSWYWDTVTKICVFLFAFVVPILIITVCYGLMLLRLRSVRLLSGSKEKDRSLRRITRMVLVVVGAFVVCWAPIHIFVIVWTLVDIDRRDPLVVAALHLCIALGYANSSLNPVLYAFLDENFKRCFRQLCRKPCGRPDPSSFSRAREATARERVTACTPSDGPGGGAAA
Sequence of Adenosine receptor A2a (P29274 whole entry): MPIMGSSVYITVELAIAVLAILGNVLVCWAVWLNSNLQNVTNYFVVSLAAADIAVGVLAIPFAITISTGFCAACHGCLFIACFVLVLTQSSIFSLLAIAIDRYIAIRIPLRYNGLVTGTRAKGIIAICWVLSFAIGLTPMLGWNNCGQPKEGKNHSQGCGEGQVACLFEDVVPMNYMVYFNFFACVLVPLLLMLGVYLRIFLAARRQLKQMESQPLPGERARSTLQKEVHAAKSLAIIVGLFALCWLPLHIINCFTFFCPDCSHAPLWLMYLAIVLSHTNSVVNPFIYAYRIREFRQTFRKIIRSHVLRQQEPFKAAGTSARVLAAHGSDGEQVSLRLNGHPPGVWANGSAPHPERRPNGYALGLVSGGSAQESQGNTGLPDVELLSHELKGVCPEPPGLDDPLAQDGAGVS
Sequence of Substance-P receptor (P25103 whole entry): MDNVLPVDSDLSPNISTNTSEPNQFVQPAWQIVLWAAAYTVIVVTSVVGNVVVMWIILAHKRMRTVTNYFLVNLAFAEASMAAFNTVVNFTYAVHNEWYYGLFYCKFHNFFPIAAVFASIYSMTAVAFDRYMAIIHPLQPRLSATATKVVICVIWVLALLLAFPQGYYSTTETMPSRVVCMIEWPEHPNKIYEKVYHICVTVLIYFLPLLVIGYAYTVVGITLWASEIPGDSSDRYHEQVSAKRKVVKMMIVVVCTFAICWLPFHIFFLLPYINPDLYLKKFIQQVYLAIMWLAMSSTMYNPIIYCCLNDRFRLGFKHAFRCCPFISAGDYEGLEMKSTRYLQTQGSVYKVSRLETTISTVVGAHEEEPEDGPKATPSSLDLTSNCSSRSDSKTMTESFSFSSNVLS

CC1=Nc2ccc(Cl)cc2S(=O)(=O)N1 [DIAZOXIDE]
Not Active: IC50 [1] | IC50 [2] | Ki [2] | IC50 [3] | IC50 [4] | Ki [4] | IC50 [5] | Ki [5] | IC50 [6] | Ki [6] | IC50 [7] | IC50 [8] | IC50 [9] | Ki [9] | IC50 [10] | IC50 [11] | Ki [11] | IC50 [12] | IC50 [13]

COc1ccc([C@@H]2Sc3ccccc3N(CCN(C)C)C(=O)[C@@H]2OC(C)=O)cc1 [DILTIAZEM]
Not Active: IC50 [1] | IC50 [2] | Ki [2] | IC50 [3] | IC50 [4] | Ki [4] | IC50 [5] | Ki [5] | IC50 [6] | Ki [6] | IC50 [7] | IC50 [8] | IC50 [9] | Ki [9] | IC50 [10] | IC50 [11] | Ki [11] | IC50 [12] | IC50 [13]

CCc1ccc(C(=O)C(C)CN2CCCCC2)cc1 (centres undefined) [EPERISONE]
Not Active: IC50 [1] | IC50 [2] | Ki [2] | IC50 [3] | IC50 [4] | Ki [4] | IC50 [5] | Ki [5] | IC50 [6] | Ki [6] | IC50 [7] | IC50 [8] | IC50 [9] | Ki [9] | IC50 [10] | IC50 [11] | Ki [11] | IC50 [12] | IC50 [13]

C=C1CC[C@H](O)C/C1=C/C=C1\CCC[C@]2(C)[C@@H]([C@H](C)/C=C/[C@H](C)C(C)C)CC[C@@H]12 [ERGOCALCIFEROL]
Not Active: IC50 [1] | IC50 [2] | Ki [2] | IC50 [3] | IC50 [4] | Ki [4] | IC50 [5] | Ki [5] | IC50 [6] | Ki [6] | IC50 [7] | IC50 [8] | IC50 [9] | Ki [9] | IC50 [10] | IC50 [11] | Ki [11] | IC50 [12] | IC50 [13]

Cc1c(-c2ccccc2)oc2c(C(=O)OCCN3CCCCC3)cccc2c1=O [FLAVOXATE]
Not Active: IC50 [1] | IC50 [2] | Ki [2] | IC50 [3] | IC50 [4] | Ki [4] | IC50 [5] | Ki [5] | IC50 [6] | Ki [6] | IC50 [7] | IC50 [8] | IC50 [9] | Ki [9] | IC50 [10] | IC50 [11] | Ki [11] | IC50 [12] | IC50 [13]

Nc1nc(=O)[nH]cc1F [FLUCYTOSINE]
Not Active: IC50 [1] | IC50 [2] | Ki [2] | IC50 [3] | IC50 [4] | Ki [4] | IC50 [5] | Ki [5] | IC50 [6] | Ki [6] | IC50 [7] | IC50 [8] | IC50 [9] | Ki [9] | IC50 [10] | IC50 [11] | Ki [11] | IC50 [12] | IC50 [13]
